Assay results as given in US7517889B2, “2,6-substituted-4-monosubstitutedamino-pyrimidine as prostaglandin D2 receptor antagonists” (Aventis Pharmaceuticals, Inc., priority 2004, dated 2009).
pIC50: −log10 of the molar value. Where a name gives a salt, the structure may show the parent alone.

target: T1, DP receptor (Homo sapiens, UniProt Q13258); assay: SPA cAMP assay in human LS174 T cells (human DP functional assay); assay type: cell-based; conditions: inhibition of PGD2 (15 nM final) stimulated cAMP, LS174T cells expressing endogenous DP receptor
T1 construct: the human cell line LS174T, which expresses the endogenous DP receptor; endogenous in cells; host or cells: LS174T human cell line
T1 sequence (Q13258 1-359): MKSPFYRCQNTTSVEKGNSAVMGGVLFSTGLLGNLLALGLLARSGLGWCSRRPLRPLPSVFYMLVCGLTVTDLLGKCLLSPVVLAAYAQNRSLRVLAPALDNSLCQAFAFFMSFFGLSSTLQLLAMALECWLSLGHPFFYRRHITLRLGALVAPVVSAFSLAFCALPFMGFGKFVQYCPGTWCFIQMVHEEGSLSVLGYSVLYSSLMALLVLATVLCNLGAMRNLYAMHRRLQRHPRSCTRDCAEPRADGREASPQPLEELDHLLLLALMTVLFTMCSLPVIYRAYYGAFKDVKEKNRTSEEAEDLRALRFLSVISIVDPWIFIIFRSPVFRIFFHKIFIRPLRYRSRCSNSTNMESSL
Protocol: The inhibitory effects of the compounds according to the invention are assessed in a human DP functional assay. A cAMP assay is employed using the human cell line LS174T, which expresses the endogenous DP receptor.
Protocol for SPA cAMP Assay in Human LS174 T Cells
• 1) Add equal volumes of tracer, antiserum and SPA anti-rabbit reagent to a bottle, ensuring that a sufficient volume of this mixture is prepared for the desired number of wells (150 μL/well). • 2) Mix thoroughly. • 3) This immunoreagent solution should be freshly prepared before each assay and not re-used.
Add 50 μL of […] IBMX into 100 mL PBS to make a final concentration of 100 μM and sonicate at 30° C. for 20 minutes.
Before each assay, it is freshly prepared. Add 3 μL of 10 mM stock solution to 20 mL DMSO, mix it thoroughly, and transfer 10 mL to 40 mL PBS.
Compound dilution is carried out in Biomex 2000 (Beckman) using Method 1_cAMP DP 11 points.
5 μL of each compound from the 10 mM stock compound plates is transferred to the wells of a 96-well plate respectively as below.
Fill the plate with 45 μL of DMSO except column 7 is filled with 28 μL DMSO. Pipette column 1 thoroughly, and transfer 12 μL into column 7 parallel. Perform 1:10 serial dilution from column 1 to column 6 and from column 7 to column 11 by transfer 5 μL to 45 μL DMSO to make following concentrations:
Fill a new 96-well plate with 247.5 μL of compound dilution buffer. Transfer 2.5 μL of serially diluted compounds from above plate to the new plate (1:100 dilution) as following:
Cell Growth • 1. […] Remove growth medium from cells. Cells in T165 flask are washed twice with 4 mL Trypsin followed by incubation at 37° C. and 5% CO2 for 3 minutes. • 4. Add 10 mL of medium and pipette thoroughly to separate the cells and count the cells. • 5. […] Assay Procedure Day 1 • Seed 45,000 cells/well in 200 μL medium in 96-well plates. Incubate the cell plate at 37° C., 5% CO2 and 95% humidity overnight. Day 2 • 1. Perform compound dilution. • 2. Prepare assay buffer, lysis buffer 1 & 2, PGD2 and standard. • 3. Aspirate media from the cells and add 100 μL of compound solution using Zymark Sciclone-ALH/FD protocol cAMP DP. • 4. Incubate the cells at 37° C., 5% CO2 and 95% humidity for 15 minutes. • 5. […] Aspirate media from the cells and add 50 μL of lysis buffer 1 using Zymark protocol cAMP DP lysis, and incubate at room temperature with shaking for 30 minutes. • 7. Add 150 μL immunoreagent to all wells (a total volume of 200 μL/well). • 8. Seal the plates and shake for 2 minutes, put into the chamber of the Wallac microtitre plate μ scintillation counter for 16 hours. […] Data Processing Set up standard curve of cAMP versus CPM.
The cAMP concentrations (pmol/mL) of unknown samples are calculated from a standard curve of cAMP versus CPM. % inhibition is calculated using the following formula: […]

Structure (SMILES) | pIC50
COc1nc(NCCc2c(F)cccc2Cl)cc(-c2cccc(Cc3noc(=O)[nH]3)c2)n1 [Example 34(b), 3-(3-{6-[2-(2-Chloro-6-fluoro-phenyl)-ethylamino]-2-methoxy-pyrimidin-4-yl}-benzyl)-4H-[1,2,4]oxadiazol-5-one hydrochloride] | 9.00
COc1nc(NCCc2ccc(C(F)(F)F)cc2F)cc(-c2ccc3[nH]cc(CC(=O)O)c3c2)n1 [Example 52, (5-{6-[2-(2-Fluoro-4-trifluoromethyl-phenyl)-ethylamino]-2-methoxy-pyrimidin-4-yl}-1H-indol-3-yl)-acetic acid] | 9.40
COc1ccc(CCNc2cc(-c3ccccc3O)nc(OC)n2)cc1 [Example 35(r), 2-{2-Methoxy-6-[2-(4-methoxy-phenyl)-ethylamino]-pyrimidin-4-yl}-phenol] | 7.77
COc1nc(NCCc2ccc(Cl)cc2)cc(-c2cccc(C(=O)O)c2)n1 [Example 35(n), 3-{6-[2-(4-chlorophenyl)-ethylamino]-2-methoxy-pyrimidin-4-yl}-benzoic acid hydrochloride] | 9.22
COc1ccc(CCNc2cc(-c3ccc4cn[nH]c4c3)nc(OC)n2)cc1 [Example 53(b), [6-(1H-Indazol-6-yl)-2-methoxy-pyrimidin-4-yl]-[2-(4-methoxy-phenyl)-ethyl]-amine] | 9.02
CC(C)(C(=O)O)c1cccc(-c2cc(NCCc3ccc(Cl)cc3Cl)nc(CO)n2)c1 [Example 86, 2-(3-{6-[2-(2,4-dichloro-phenyl)-ethylamino]-2-hydroxymethyl-pyrimidin-4-yl}-phenyl)-2-methyl-propionic acid] | 7.15
COc1ccc(CCNc2cc(-c3ccc(F)c(/C=N\O)c3)nc(OC)n2)cc1 [Example 26, 2-Fluoro-5-{2-methoxy-6-[2-(4-methoxy-phenyl)-ethylamino]-pyrimidin-4-yl}-benzaldehyde oxime] | 8.35
COc1ccc(CCNc2cc(-c3ccsc3/C=N/O)nc(OC)n2)cc1 [Example 26(d), 3-{2-Methoxy-6-[2-(4-methoxy-phenyl)-ethylamino]-pyrimidin-4-yl}-thiophene-2-carbaldehyde oxime] | 9.40
COc1nc(NCCc2ccc(OC)c(OC)c2)cc(-c2ccco2)n1 [Example 35(d), [2-(3,4-Dimethoxy-phenyl)-ethyl]-(6-furan-2-yl-2-methoxy-pyrimidin-4-yl)-amine] | 6.59
COc1ccc(CCNc2cc(OCc3ccccc3OC)nc(OC)n2)cc1 [Example (48), [2-Methoxy-6-(2-methoxy-benzyloxy)-pyrimidin-4-yl]-[2-(4-methoxy-phenyl)-ethyl]-amine hydrochloride] | 7.92
COc1cccc(-c2cc(NCCc3ccc([N+](=O)[O-])cc3)nc(OC)n2)c1 [Example 43(b), [2-Methoxy-6-(3-methoxy-phenyl)-pyrimidin-4-yl]-[2-(4-nitro-phenyl)-ethyl]-amine] | 9.05
COc1ccc(CCNc2cc(-c3nnc(C)o3)nc(OC)n2)cc1 [Example 44, [2-Methoxy-6-(5-methyl-[-1,3,4]oxadiazol-2-yl)-pyrimidin-4-yl]-[2-(4-methoxy-phenyl)-ethyl]-amine] | 7.26
COc1ccc(CCNc2cc(-c3ccc(OC)c(OC)c3)nc(OC(C)C)n2)cc1OC [Example 17(a), [2-(3,4-Dimethoxy-phenyl)-ethyl]-[6-(3,4-dimethoxy-phenyl)-2-isopropoxy-pyrimidin-4-yl]-amine] | 5.17
COc1nc(NCCc2ccc(Cl)cc2Cl)cc(-c2cccc(C(=O)OCCN3CCN(C)CC3)c2)n1 [Example 76, 3-{6-[2-(2,4-Dichloro-phenyl)-ethylamino]-2-methoxy-pyrimidin-4-yl}-benzoic acid 2-(4-methyl-piperazin-1-yl)-ethyl ester] | 8.15
COc1ccc(CCNc2cc(-c3ccc4c(c3)CCO4)nc(OC)n2)cc1 [Example 10(j), [6-(2,3-Dihydro-benzofuran-5-yl)-2-methoxy-pyrimidin-4-yl]-[2-(4-methoxy-phenyl)-ethyl]-amine] | 7.89
COc1ccc(CCNc2cc(-c3ccc(C=O)s3)nc(OC)n2)cc1 [Example 8(b), 5-{2-methoxy-6-[2-(4-methoxy-phenyl)-ethylamino]-pyrimidin-4-yl}-thiophene-2-carbaldehyde] | 9.22
COc1ccc(CCNc2cc(-c3ccc4[nH]cnc4c3)nc(OC)n2)cc1 [Example 14(a), [6-(1H-Benzoimidazol-5-yl)-2-methoxy-pyrimidin-4-yl]-[2-(4-methoxy-phenyl)-ethyl]-amine] | 8.57

Results, then the compound that gave them:

pIC50 | Structure (SMILES)
8.30 | COc1ccc(CCNc2cc(-c3cccc(C(C)=O)c3)nc(OC)n2)cc1 [Example 35(h), 1-(3-{2-Methoxy-6-[2-(4-methoxy-phenyl)-ethylamino]-pyrimidin-4-yl}-phenyl)-ethanone]
9.52 | COc1nc(NCCc2c(F)cccc2Cl)cc(-c2ccc(=O)n(CC(=O)O)c2)n1 [Example 23(c), (5-{6-[2-(2-Chloro-6-fluoro-phenyl)-ethylamino]-2-methoxy-pyrimidin-4-yl}-2-oxo-2H-pyridin-1-yl)-acetic acid]
10.00 | COc1ccc(CCNc2cc(-c3cccc(O)c3)nc(OC)n2)cc1 [Example 15(a), 3-{2-Methoxy-6-[2-(4-methoxy-phenyl)-ethylamino]-pyrimidin-4-yl}-phenol hydrochloride]
8.64 | COc1ccc(CCNc2cc(-c3ccc(-c4cnco4)s3)nc(OC)n2)cc1 [Example 11(a), [2-Methoxy-6-(5-oxazol-5-yl-thiophen-2-yl)-pyrimidin-4-yl]-[2-(4-methoxy-phenyl)-ethyl]-amine]
8.54 | COc1ccc(CCNc2cc(-c3cccc(S(N)(=O)=O)c3)nc(OC)n2)cc1 [Example 3, 3-{2-Methoxy-6-[2-(4-methoxy-phenyl)-ethylamino]-pyrimidin-4-yl}-benzenesulfonamide]
9.52 | COc1nc(NCCc2ccc(Cl)cc2Cl)cc(-c2cccc(C(C)(C)C(=O)O)c2)n1 [Example 15(d), 2-(3-{6-[2-(2,4-Dichloro-phenyl)-ethylamino]-2-methoxy-pyrimidin-4-yl}-phenyl)-2-methyl-propionic acid hydrochloride]
9.10 | COc1nc(NCCc2ccc(Cl)cc2Cl)cc(N2CCCC(C(=O)O)C2)n1 (stereo not drawn) [Example 73, 1-{6-[2-(2,4-Dichloro-phenyl)-ethylamino]-2-methoxy-pyrimidin-4-yl}-piperidine-3-carboxylic acid]
9.15 | COc1nc(NCCc2ccc(OC(F)(F)F)cc2)cc(-c2cccc(C3(C(=O)NS(C)(=O)=O)CCOCC3)c2)n1 [Example 84(a), N-[4-(3-{2-Methoxy-6-[2-(4-trifluoromethoxy-phenyl)-ethylamino]-pyrimidin-4-yl}-phenyl)-tetrahydro-pyran-4-carbonyl]-methanesulfonamide]
7.59 | COc1ccc(CCNc2cc(-c3cn[nH]c3)nc(OC)n2)cc1 [Example 8(f), [2-(4-Methoxy-phenyl)-ethyl]-[2-methoxy-6-(1H-pyrazol-4-yl)-pyrimidin-4-yl]-amine]
8.51 | COc1nc(NCCc2ccc(OC(F)(F)F)cc2)cc(-c2ccc3c(c2)CC(C(=O)O)O3)n1 (stereo not drawn) [Example 88, 5-{2-Methoxy-6-[2-(4-trifluoromethoxy-phenyl)-ethylamino]-pyrimidin-4-yl}-2,3-dihydro-benzofuran-2-carboxylic acid hydrochloride]
